According to patent publication US9862724B2, “Pyrazolo[1,5-a]pyrimidine-based compounds, compositions comprising them, and methods of their use” (LEXICON PHARMACEUTICALS, INC., priority 2013, dated 2018):
Like-named read-outs stand apart in the source and are kept apart here.

Columns and labels:
[1] = biological target: T1, AAK1 (full-length human protein) (Homo sapiens, UniProt Q2M2I8); experiment: P81 filter plate assay; type: biochemical; details: 0.2 nM 2x AAK1, Mu2 substrate, 33P-ATP
T1 construct: NP_055726.2
Experimental: Compounds were serially diluted into a Labcyte LDV plate (Labcyte, cat# LP-0200) using a Mutiprobe (PerkinElmer) and Biomek FX (Beckman Coulter) so that the highest compound concentration was at 96 μM. Compounds were then pinged (75 nL per well) into a Greiner 384-well reaction plate (Greiner, #781076) using an ECHO 550 Liquid Handler (Labcyte). A total of 12 μl reaction buffer (IMAP buffer containing Tween and DTT, from Molecular Devices) was then added to each well of columns 1 and 13 for the negative controls and 12 μl of 2×AAK1 (0.2 nM full-length human protein, NCBI accession no. NP_055726.2) was added to the remaining wells. Enzyme was then pre-incubated with compound for 10 minutes at RT. Reactions were initiated upon Minitrak (PerkinElmer) addition of 12 μl substrate mix containing 2×Mu2 (0.2 μM, full length human protein), 2× cold ATP (2 μM), and 1.3 μCi of hot ^33P-ATP. Reactions proceeded for one hour at RT. Meanwhile, Millipore 384-well P81 filter plates (Millipore, catalog # MZPHN0W10) were placed on a plate washer (Zoom ZW, from Titertek) and pre-wet with 50 μl […] phosphoric acid. Kinase reactions were then stopped upon addition of 24 μl of 2% phosphoric acid to each well and the Minitrak was then used to transfer 40 μl from each well into the pre-wet Millipore 384-well P81 filter plates. Reaction mixtures were incubated for 10 minutes at room temperature in the P81 plates, followed by washing five times with 100 μl/well of 1% phosphoric acid using the Zoom filter washer. The bottom of each filter plate was sealed followed by addition of 20 μl Microscint 40 to each well, sealing the top of the plates with Flashplate cover, and then waiting one hour until reading on the TopCount (PerkinElmer).

[2] = biological target: T2, AAK1 (Homo sapiens, UniProt Q2M2I8); experiment: HEK281 cell-based assay (phospho-mu2 Western blot in transfected HEK293F cells); details: HEK293F cells transfected with human AAK1 and AP2M1, 3 hours, read-out: CBA IC50
T2 construct: expressed in transfected cells; host or cells: HEK293F
Experimental: HEK293F cells were cultured in media containing DMEM (Gibco, cat. #11965), 10% FBS (SAFC Biosciences, cat. #12103C), 1×GPS (glutamine, penicillin and streptomycin). On day one, cells were plated on a 10 cm dish so that they are ˜80% confluent at time of transfection. Roughly 12 million cells were in a 10 cm dish at time of transfection. On day two, each dish was transfected with 48 ug DNA and 144 ul Lipofectamine 2000 (Invitrogen, cat.#11668-019). The DNA was comprised of a mixture (per 10 cm dish) containing 3 ug AAK1/HA/pIRES (full length human, NCBI accession no. NP_055726.2), 45 μg Flag/AP2MI/pcDNA (full length human), and 1.5 ml OPTI-MEM. The Lipofectamine 2000 is made up of a mixture (per 10 cm dish) containing 144 μl Lipofectamine 2000 and 1.5 ml OPTI-MEM. Each mixture was transferred to individual 15 ml tubes and incubated at room temperature for 5 minutes, and then the two mixes were combined and incubated at room temperature for 20 minutes. Growth media was then aspirated from each 10 cm plate and replaced with 10 ml of DMEM+10% FBS (no GPS). Finally, 3 ml DNA/Lipofectamine mix was added to each 10 cm dish and mix gently followed by incubate of plate overnight at 37° C. and 5% CO2.
On day three, compounds were diluted in 100% DMSO at 1000× final concentration, followed by 3-fold serial dilutions for a total of 5 concentrations tested. Four compounds were tested per 10 cm dish. One ul of each compound dilution was then pipetted into a deep-well, 96-well plate, followed by addition of 500 μl DMEM+0.5% FBS into each well for a 2× final concentration of each compound. Cells were resuspended in a 10 cm dish by simple pipetting (HEK293 cells come off the plate that easy at this point) and then transferred to a 50 ml conical tube and pelleted by centrifugation at 1000 rpm for 5 min. Cell pellets were then resuspended in 2.75 ml DMEM+0.5% FBS per 10 cm dish and 100 μl of cell suspension transferred into each well of 96-well TC plate. Finally, 100 μl of 2× compound diluted in DMEM+0.5% FBS was then added into wells containing cell suspension for a 1× final concentration. Plates were then incubated at 37° C. and 5% CO2 for 3 hours followed by transferring of cell suspensions from each well into 12-tube PCR strips. The PCR strips were spun in a tip rack at 1000 rpm for 5 minutes to pellet cells and media was then removed by pipetting without disturbing the cell pellet.
To prepare for Western Blot analysis, cell pellets were resuspend in 40 ul 1×LDS-PAGE sample buffer (Invitrogen, cat.# NP0008)+2× Halt phophatase and protease inhibitor cocktail (Thermo Scientific, cat.#1861284), followed by sonicating each with microtip sonicator set at 5 for 8-10 seconds. Five ul of 10× NuPage Sample Reducing Agent (with […]) was to each sample followed by heat denaturing at 70 C for 10 min on PCR machine. A total of 10 μl per sample was loaded into each lane of a 4-20% Tris-Glycine Criterion 26-well gel (Biorad, cat.#345-0034) for the phospho-mu2 blot and 10 μl per lane in a 4-12% Bis-Tris (+MES buffer) NuPAGE 26-well gel (Invitrogen, cat.# WG1403BX10) for the mu2 blot. For controls, 2 ng of phospho-mu2 or 20 ng mu2/Flag proteins were loaded in the last well of each gel. After SDS-PAGE, samples on each gel were transferred to PVDF membrane using an iBlot and membranes were blocked for one hour in TBST+5% milk, followed by wash 3× for 5-10 min with TBST. Criterion gels were probed with rabbit anti-phospho-mu2 (1:5000; a rabbit polyclonal antibody produced by New England Peptide and affinity purified at Lexicon) in TBST+5% BSA, whereas, NuPAGE gels were probed with mouse anti-Flag (1:500; Sigma, cat.# F1804) in TBST+5% milk, and these primary antibodies were incubated overnight at 4° C. on a rocker. […]

[3] = tested on: PC12 cells; details: Kuai et al. 2011; cited from earlier work

T2 sequence (Q2M2I8 1-863 isoform Q2M2I8-2): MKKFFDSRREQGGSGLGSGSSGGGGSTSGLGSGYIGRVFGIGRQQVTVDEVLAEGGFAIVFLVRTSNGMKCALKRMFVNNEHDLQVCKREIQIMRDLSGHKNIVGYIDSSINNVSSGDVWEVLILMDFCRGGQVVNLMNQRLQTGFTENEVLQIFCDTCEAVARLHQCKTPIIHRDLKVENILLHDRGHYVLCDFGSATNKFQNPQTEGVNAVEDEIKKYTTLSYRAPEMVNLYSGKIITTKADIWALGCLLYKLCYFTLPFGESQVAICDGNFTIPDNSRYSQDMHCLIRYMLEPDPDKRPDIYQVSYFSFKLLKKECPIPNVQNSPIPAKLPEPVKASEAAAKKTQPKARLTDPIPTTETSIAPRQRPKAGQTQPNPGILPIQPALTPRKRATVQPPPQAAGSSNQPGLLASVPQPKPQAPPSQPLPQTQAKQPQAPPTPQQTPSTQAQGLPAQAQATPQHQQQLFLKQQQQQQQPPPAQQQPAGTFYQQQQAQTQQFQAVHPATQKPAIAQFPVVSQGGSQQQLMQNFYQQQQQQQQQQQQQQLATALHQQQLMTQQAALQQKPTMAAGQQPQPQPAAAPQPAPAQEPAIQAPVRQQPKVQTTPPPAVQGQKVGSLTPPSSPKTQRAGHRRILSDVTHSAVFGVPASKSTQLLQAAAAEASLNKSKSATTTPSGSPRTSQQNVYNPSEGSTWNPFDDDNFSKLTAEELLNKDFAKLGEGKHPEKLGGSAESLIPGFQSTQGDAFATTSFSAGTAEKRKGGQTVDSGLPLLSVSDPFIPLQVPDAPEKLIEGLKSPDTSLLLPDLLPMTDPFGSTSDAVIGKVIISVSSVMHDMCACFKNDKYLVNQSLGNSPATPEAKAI
T1 sequence (Q2M2I8 1-863 isoform Q2M2I8-2): as above

SMILES	IC50 ([1]; class symbols)	IC50 ([2]; class symbols)	IC50 ([1]; numeric bounds)	IC50 ([2]; numeric bounds)	Effect on Neuregulin-1 induced neurite outgrowth [3]
CC(C)CCn1ccc(-c2ccn3ncc(Cl)c3n2)cc1=O [4-(3-chloropyrazolo[1,5-a]pyrimidin-5-yl)-1-isopentylpyridin-2(1H)-one]	≤ 100 nM	≤ 10 nM	–	–	–
CC(C)CCn1ccc(-c2ccn3ncc(I)c3n2)cc1=O [4-(3-iodopyrazolo[1,5-a]pyrimidin-5-yl)-1-isopentylpyridin-2(1H)-one]	≤ 10 nM	≤ 10 nM	–	–	–
COc1ncccc1-c1cnn2ccc(-c3ccnc(OC(C)C)c3)nc12 [5-(2-isopropoxypyridin-4-yl)-3-(2-methoxypyridin-3-yl)pyrazolo[1,5-a]pyrimidine]	≤ 100 nM	≤ 10 nM	–	–	–
COC(=O)[C@@]1(O)C[C@H]2O[C@]1(C)n1c3ccccc3c3c4c(c5c6ccccc6n2c5c31)C(=O)NC4 [K252a]	–	–	–	–	potentiation of Neuregulin-1 induced neurite outgrowth
COc1ncccc1-c1cnn2ccc(C3=CCN(C(=O)OC(C)C)CC3)nc12 [isopropyl 4-(3-(2-methoxypyridin-3-yl)pyrazolo[1,5-a]pyrimidin-5-yl)-5,6-dihydropyridine-1(2H)-carboxylate]	≤ 10 nM	≤ 10 nM	–	–	–
COc1ncccc1-c1cnn2ccc(C3CCN(C(=O)OC(C)C)CC3)nc12 [isopropyl 4-(3-(2-methoxypyridin-3-yl)pyrazolo[1,5-a]pyrimidin-5-yl)piperidine-1-carboxylate]	–	≤ 10 nM	> 300 nM	–	–
CC(C)OC(=O)N(C)CCCc1ccn2nccc2n1 [isopropyl methyl(3-(pyrazolo[1,5-a]pyrimidin-5-yl)propyl)carbamate]	–	–	> 100 nM	> 300 nM	–

Now from value to compound, other results behind:

IC50 ([1]; class symbols)	IC50 ([2]; class symbols)	IC50 ([1]; numeric bounds)	IC50 ([2]; numeric bounds)	SMILES	Effect on Neuregulin-1 induced neurite outgrowth [3]
≤ 10 nM	≤ 10 nM	–	–	COc1ncccc1-c1cnn2ccc(-c3ccn(CCC(F)(F)F)c(=O)c3)nc12 [4-(3-(2-methoxypyridin-3-yl)pyrazolo[1,5-a]pyrimidin-5-yl)-1-(3,3,3-trifluoropropyl)pyridin-2(1H)-one]	–
≤ 100 nM	≤ 10 nM	–	–	COc1ccc(F)cc1-c1cnn2ccc(-c3ccn(CCC(F)(F)F)c(=O)c3)nc12 [4-(3-(5-fluoro-2-methoxyphenyl)pyrazolo[1,5-a]pyrimidin-5-yl)-1-(3,3,3-trifluoropropyl)pyridin-2(1H)-one]	–
≤ 10 nM	≤ 10 nM	–	–	COc1ccc(F)cc1-c1cnn2ccc(-c3ccn(CC(C)C)c(=O)c3)nc12 [4-(3-(5-fluoro-2-methoxyphenyl)pyrazolo[1,5-a]pyrimidin-5-yl)-1-isobutylpyridin-2(1H)-one]	–
≤ 10 nM	≤ 10 nM	–	–	COc1ccc(F)cc1-c1cnn2ccc(-c3ccn(CCC(C)C)c(=O)c3)nc12 [4-(3-(5-fluoro-2-methoxyphenyl)pyrazolo[1,5-a]pyrimidin-5-yl)-1-isopentylpyridin-2(1H)-one]	–
≤ 10 nM	≤ 10 nM	–	–	COc1ncc(F)cc1-c1cnn2ccc(-c3ccn(CCC(F)(F)F)c(=O)c3)nc12 [4-(3-(5-fluoro-2-methoxypyridin-3-yl)pyrazolo[1,5-a]pyrimidin-5-yl)-1-(3,3,3-trifluoropropyl)pyridin-2(1H)-one]	–
≤ 10 nM	≤ 10 nM	–	–	COc1ncc(F)cc1-c1cnn2ccc(-c3ccn(CCC(C)C)c(=O)c3)nc12 [4-(3-(5-fluoro-2-methoxypyridin-3-yl)pyrazolo[1,5-a]pyrimidin-5-yl)-1-isopentylpyridin-2(1H)-one]	–
≤ 10 nM	≤ 10 nM	–	–	CC(C)CCn1ccc(-c2ccn3ncc(Br)c3n2)cc1=O [4-(3-bromopyrazolo[1,5-a]pyrimidin-5-yl)-1-isopentylpyridin-2(1H)-one]	–
